Laboratory results taken from patent US20160145257A1, “SUBSTITUTED XANTHINES AND METHODS OF USE THEREOF” (Hydra Biosciences, Inc., priority 2013, published 2016).
Structures can show the parent of a compound that is named as a salt.

Target: T1, hTRPC5 (Homo sapiens, UniProt Q9UL62)
T1 construct: expressed in transfected cells; host or cells: HEK293 TREx cells with inducible TRPC5 expression
T1 sequence (Q9UL62 1-973): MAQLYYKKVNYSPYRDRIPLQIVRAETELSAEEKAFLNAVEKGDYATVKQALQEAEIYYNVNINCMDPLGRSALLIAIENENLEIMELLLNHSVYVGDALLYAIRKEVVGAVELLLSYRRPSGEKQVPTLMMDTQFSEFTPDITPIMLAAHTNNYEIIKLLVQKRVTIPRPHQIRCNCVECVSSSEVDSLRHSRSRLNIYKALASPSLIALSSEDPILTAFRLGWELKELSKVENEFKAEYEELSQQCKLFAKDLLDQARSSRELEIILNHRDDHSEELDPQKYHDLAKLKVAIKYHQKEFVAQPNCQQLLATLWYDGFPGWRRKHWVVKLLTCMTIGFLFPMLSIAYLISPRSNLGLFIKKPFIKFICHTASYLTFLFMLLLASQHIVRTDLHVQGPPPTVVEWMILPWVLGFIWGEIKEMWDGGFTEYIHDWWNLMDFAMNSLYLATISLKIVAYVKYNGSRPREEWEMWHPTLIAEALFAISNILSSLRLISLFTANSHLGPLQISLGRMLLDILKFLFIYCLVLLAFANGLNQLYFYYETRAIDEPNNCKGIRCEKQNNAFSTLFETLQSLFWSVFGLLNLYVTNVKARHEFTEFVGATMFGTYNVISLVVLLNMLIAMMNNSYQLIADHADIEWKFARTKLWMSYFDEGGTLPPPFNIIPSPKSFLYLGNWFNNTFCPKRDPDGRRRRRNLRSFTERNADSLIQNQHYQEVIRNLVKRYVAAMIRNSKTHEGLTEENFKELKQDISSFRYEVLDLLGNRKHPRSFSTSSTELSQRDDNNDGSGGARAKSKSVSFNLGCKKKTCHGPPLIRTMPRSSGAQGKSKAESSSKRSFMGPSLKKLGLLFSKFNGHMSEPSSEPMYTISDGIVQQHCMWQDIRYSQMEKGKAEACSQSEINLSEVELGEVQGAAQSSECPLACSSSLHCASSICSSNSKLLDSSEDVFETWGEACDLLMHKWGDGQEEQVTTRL
Test: Whole-cell patch clamp, block of LaCl3-activated TRPC5 inward current
Type: cell-based
Conditions: TRPC5-expressing HEK293 TREx cells, 80 μM LaCl3, inward current, IC50 estimated from 5 μM and 500 nM, read-out: hTRPC5 Patch La3+ Inwd (nM) (All Batches)
In short: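 Whole-cell recordings in induced TRPC5-expressing HEK293 TREx cells, holding −40 mV, 400 ms ramps −120 to +100 mV every 5 s; current activated by 80 μM external LaCl3 and 1,400 nM pipette free Ca2+ (pH 7.2 internal, 7.4 external). Inward block at −80 mV, with LaCl3 present; IC50 estimated from testing at 5 μM and 500 nM.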

IC50	Compound
100 to 500 nM	CCc1coc(CSc2nc3c(c(=O)n(C)c(=O)n3C)n2Cc2cccc(Br)c2)n1 [Compound 20, 7-(3-bromobenzyl)-8-((4-ethyloxazol-2-yl)methylthio)-1,3-dimethyl-1H-purine-2,6(3H,7H)-dione]
100 to 500 nM	CCc1coc(CSc2nc3c(c(=O)n(C)c(=O)n3C)n2Cc2ccc(F)cc2)n1 [Compound 156, 8-((4-ethyloxazol-2-yl)methylthio)-7-(4-fluorobenzyl)-1,3-dimethyl-1H-purine-2,6(3H,7H)-dione]
2000 to 10000 nM	CN(C)Cc1cccc(Oc2nc3c(c(=O)n(C)c(=O)n3C)n2Cc2cccc(Cl)c2)c1 [Compound 153, 7-(3-Chlorobenzyl)-8-(3-((dimethylamino)methyl)phenoxy)-1,3-dimethyl-1H-purine-2,6(3H,7H)-dione hydrochloride]
2000 to 10000 nM	CCCCC(O)c1nc2c(c(=O)n(C)c(=O)n2C)n1Cc1cccc(Br)c1 (centres unmarked) [Compound 98]
2000 to 10000 nM	Cn1c(=O)c2c(nc(/C=C/c3ccccc3)n2Cc2cccc(Br)c2)n(C)c1=O [Compound 32]
500 to 1000 nM	Cn1c(=O)c2c(nc(CCc3ccccc3)n2Cc2cccc(Br)c2)n(C)c1=O [Compound 33, 7-(3-bromobenzyl)-1,3-dimethyl-8-phenethyl-1H-purine-2,6(3H,7H)-dione]
2000 to 10000 nM	Cn1c(=O)c2c(nc(CCCN3CCCC3)n2Cc2cccc(Br)c2)n(C)c1=O [Compound 81]
2000 to 10000 nM	Cn1c(=O)c2c(nc(COCc3ccccc3)n2Cc2cccc(Br)c2)n(C)c1=O [Compound 45]
2000 to 10000 nM	Cc1nc2c(c(=O)n(C)c(=O)n2C)n1Cc1cccc(Br)c1 [Compound 24, 7-(3-bromobenzyl)-1,3,8-trimethyl-1H-purine-2,6(3H,7H)-dione]
< 100 nM	Cn1c(=O)c2c(nc(Oc3cccc(OC(F)(F)F)c3)n2Cc2cc(Cl)cc(Cl)c2)n(C)c1=O [Compound 204, 7-(3,5-dichlorobenzyl)-1,3-dimethyl-8-(3-(trifluoromethoxy)phenoxy)-1H-purine-2,6(3H,7H)-dione]
2000 to 10000 nM	Cc1c(Oc2nc3c(c(=O)n(C)c(=O)n3C)n2Cc2ccc(Cl)cc2)cccc1C(F)(F)F [Compound 207, 7-(4-chlorobenzyl)-1,3-dimethyl-8-(2-methyl-3-(trifluoromethyl)phenoxy)-1H-purine-2,6(3H,7H)-dione]
100 to 500 nM	CCOC(=O)C(C)(C)Cc1nc2c(c(=O)n(C)c(=O)n2C)n1Cc1cccc(Br)c1 [Compound 97, Ethyl 3-(7-(3-bromobenzyl)-1,3-dimethyl-2,6-dioxo-2,3,6,7-tetrahydro-1H-purin-8-yl)-2-2-dimethylpropanoate]
2000 to 10000 nM	Cn1c(=O)c2c(nc(CC(=O)O)n2Cc2cccc(Br)c2)n(C)c1=O [Compound 25, 2-(7-(3-bromobenzyl)-1,3-dimethyl-2,6-dioxo-2,3,6,7-tetrahydro-1H-purin-8-yl)acetic acid]
2000 to 10000 nM	CCOc1nc2c(c(=O)n(C)c(=O)n2C)n1Cc1cccc(Br)c1 [Compound 28, 7-(3-bromobenzyl)-8-ethoxy-1,3-dimethyl-1H-purine-2,6(3H,7H)-dione]
100 to 500 nM	COc1cccc(Cn2c(Oc3cccc(OC(F)(F)F)c3)nc3c2c(=O)n(C)c(=O)n3C)c1 [Compound 160, 7-(3-methoxybenzyl)-1,3-dimethyl-8-(3-(trifluoromethoxy)phenoxy)-1H-purine-2,6(3H,7H)-dione]
2000 to 10000 nM	CCOc1nc2c(c(=O)n(C)c(=O)n2C)n1Cc1cccc(Cl)c1 [Compound 154, 7-(3-Chlorobenzyl)-8-ethoxy-1,3-dimethyl-1H-purine-2,6(3H,7H)-dione]
100 to 500 nM	CC(c1ccc(Cl)cc1)n1c(Oc2cccc(C(F)(F)F)c2)nc2c1c(=O)n(C)c(=O)n2C (centres unmarked) [Compound 187, 7-(1-(4-chlorophenyl)ethyl)-1,3-dimethyl-8-(3-(trifluoromethyl)phenoxy)-1H-purine-2,6(3H,7H)-dione]
1000 to 2000 nM	CC(=O)c1cccc(Oc2nc3c(c(=O)n(C)c(=O)n3C)n2Cc2cccc(Br)c2)c1 [Compound 114, 8-(3-acetylphenoxy)-7-(3-bromobenzyl)-1,3-dimethyl-1H-purine-2,6(3H,7H)-dione]
100 to 500 nM	CCc1cnc(CSc2nc3c(c(=O)n(C)c(=O)n3C)n2Cc2cccc(Br)c2)o1 [Compound 23]
500 to 1000 nM	CCCOCCc1nc2c(c(=O)n(C)c(=O)n2C)n1Cc1ccc(Cl)cc1 [Compound 93]

IC50	Compound
< 100 nM	Cc1cccc(Cn2c(Oc3cccc(OC(F)(F)F)c3)nc3c2c(=O)n(C)c(=O)n3C)c1 [Compound 167, 1,3-dimethyl-7-(3-methylbenzyl)-8-(3-(trifluoromethoxy)phenoxy)-1H-purine-2,6(3H,7H)-dione]
2000 to 10000 nM	CNCc1cccc(Oc2nc3c(c(=O)n(C)c(=O)n3C)n2Cc2cccc(Cl)c2)c1 [Compound 152, hydrochloride]
100 to 500 nM	Cn1c(=O)c2c(nc(Oc3cccc(C(F)(F)F)c3)n2Cc2ccc(Cl)cc2)n(C)c1=O [Compound 73]
2000 to 10000 nM	Cn1c(=O)c2c(nc(CC(=O)NCCO)n2Cc2cccc(Br)c2)n(C)c1=O [Compound 38, 2-(7-(3-Bromobenzyl)-1,3-dimethyl-2,6-dioxo-2,3,6,7-tetrahydro-1H-purin-8-yl)-N-(2-hydroxyethyl)acetamide]
1000 to 2000 nM	CCOCCS(=O)(=O)c1nc2c(c(=O)n(C)c(=O)n2C)n1Cc1cccc(Br)c1 [Compound 14, 7-(3-bromobenzyl)-8-(2-ethoxyethylsulfonyl)-1,3-dimethyl-1H-purine-2,6(3H,7H)-dione]
2000 to 10000 nM	CCCOCCc1nc2c(c(=O)n(C)c(=O)n2C)n1Cc1ccc(C#N)cc1 [Compound 118]
2000 to 10000 nM	CCCOCCc1nc2c(c(=O)n(C)c(=O)n2C)n1Cc1ccc(CO)cc1 [Compound 151]
2000 to 10000 nM	Cn1c(=O)c2c(nc(SCc3ncc[nH]3)n2Cc2cccc(Br)c2)n(C)c1=O [Compound 8]
100 to 500 nM	CCOCc1cccc(Oc2nc3c(c(=O)n(C)c(=O)n3C)n2Cc2cccc(Br)c2)c1 [Compound 126, 7-(3-bromobenzyl)-8-(3-(ethoxymethyl)phenoxy)-1,3-dimethyl-1H-purine-2,6(3H,7H)-dione]
2000 to 10000 nM	CCOC(=O)/C=C/c1nc2c(c(=O)n(C)c(=O)n2C)n1Cc1cccc(Br)c1 [Compound 36]
1000 to 2000 nM	CCc1coc(CSc2nc3c(c(=O)n(C)c(=O)n3C)n2Cc2ccc(C#N)cc2)n1 [Compound 169, 4-((8-((4-ethyloxazol-2-yl)methylthio)-1,3-dimethyl-2,6-dioxo-2,3-dihydro-1H-purin-7(6H)-yl)methyl)benzonitrile]
2000 to 10000 nM	Cn1c(=O)c2c(nc(CCO)n2Cc2cccc(Br)c2)n(C)c1=O [Compound 39, 7-(3-Bromobenzyl)-8-(2-hydroxyethyl)-1,3-dimethyl-1H-purine-2,6(3H,7H)-dione]
2000 to 10000 nM	CC(O)CSc1nc2c(c(=O)n(C)c(=O)n2C)n1Cc1cccc(Br)c1 (centres unmarked) [Compound 5]
2000 to 10000 nM	CCCOCCc1nc2c(c(=O)n(C)c(=O)n2C)n1Cc1ccc(C(N)=O)cc1 [Compound 149]
2000 to 10000 nM	Cn1c(=O)c2c(nc(Nc3cccc(C(F)(F)F)c3)n2Cc2cccc(Br)c2)n(C)c1=O [Compound 172]
100 to 500 nM	Cn1c(=O)c2c(nc(Oc3cccc(OC(F)(F)F)c3)n2Cc2cccc(Cl)c2)n(C)c1=O [Compound 168, 7-(3-chlorobenzyl)-1,3-dimethyl-8-(3-(trifluoromethoxy)phenoxy)-1H-purine-2,6(3H,7H)-dione]
500 to 1000 nM	Cn1c(=O)c2c(nc(Oc3ccc(C(F)(F)F)cc3)n2Cc2ccc(Cl)cc2)n(C)c1=O [Compound 144]
2000 to 10000 nM	CCCN(CCc1nc2c(c(=O)n(C)c(=O)n2C)n1Cc1cccc(Br)c1)C(C)=O [Compound 49]
2000 to 10000 nM	CCOC(=O)CCc1nc2c(c(=O)n(C)c(=O)n2C)n1Cc1cccc(Br)c1 [Compound 37, ethyl 3-(7-(3-bromobenzyl)-1,3-dimethyl-2,6-dioxo-2,3,6,7-tetrahydro-1H-purin-8-yl)propanoate]

Compound	IC50
CCCCOCc1nc2c(c(=O)n(C)c(=O)n2C)n1Cc1cccc(Br)c1 [Compound 55, 7-(3-bromobenzyl)-8-(butoxymethyl)-1,3-dimethyl-1H-purine-2,6(3H,7H)-dione]	500 to 1000 nM
CN1CCN(C(=O)Cc2nc3c(c(=O)n(C)c(=O)n3C)n2Cc2cccc(Br)c2)CC1 [Compound 29]	2000 to 10000 nM
